# Numbered stars: 1 amine (or outer) side, 2 acyl side, 3 side chain; on linkers, the order of the positions; unused ones are H or OH. Square brackets hold non-standard residues; d marks the D form. Side chains are listed from the residue outwards. Ends that are not written are not given here. Peptide text beside a SMILES is read from it. * marks the point of attachment. ξ: configuration not given here. C18 diacid = O=C(O)CCCCCCCCCCCCCCCCC(=O)*; γGlu = O=C(O)[C@H](CCC(=O)[*:2])N[*:1]; tBuAla = CC(C)(C)C[C@H](N)C(=O)O; ξIva = CCC(C)(N)C(=O)O; AEEA = NCCOCCOCC(=O)O; Aib = CC(C)(N)C(=O)O
# T1: human GIP receptor (Homo sapiens, UniProt P48546)
# T1 construct: human adipocytes endogenously expressing the human GIP receptor; host or cells: human preadipocytes (Lonza) differentiated to adipocytes
# T1 sequence (P48546 22-466): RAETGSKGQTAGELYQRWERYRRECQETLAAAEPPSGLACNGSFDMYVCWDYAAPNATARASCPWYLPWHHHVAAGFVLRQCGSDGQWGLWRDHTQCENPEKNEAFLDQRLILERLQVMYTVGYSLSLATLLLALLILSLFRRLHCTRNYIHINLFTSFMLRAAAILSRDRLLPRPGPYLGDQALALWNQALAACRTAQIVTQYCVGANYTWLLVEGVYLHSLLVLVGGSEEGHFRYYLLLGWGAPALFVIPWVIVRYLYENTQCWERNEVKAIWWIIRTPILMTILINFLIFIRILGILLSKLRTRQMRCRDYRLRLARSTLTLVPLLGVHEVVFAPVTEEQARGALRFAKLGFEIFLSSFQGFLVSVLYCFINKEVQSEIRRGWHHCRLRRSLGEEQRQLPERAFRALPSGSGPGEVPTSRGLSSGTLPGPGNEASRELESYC
# T2: human GIP receptor (hGIPR) (Homo sapiens, UniProt P48546)
# T2 sequence (P48546 22-466): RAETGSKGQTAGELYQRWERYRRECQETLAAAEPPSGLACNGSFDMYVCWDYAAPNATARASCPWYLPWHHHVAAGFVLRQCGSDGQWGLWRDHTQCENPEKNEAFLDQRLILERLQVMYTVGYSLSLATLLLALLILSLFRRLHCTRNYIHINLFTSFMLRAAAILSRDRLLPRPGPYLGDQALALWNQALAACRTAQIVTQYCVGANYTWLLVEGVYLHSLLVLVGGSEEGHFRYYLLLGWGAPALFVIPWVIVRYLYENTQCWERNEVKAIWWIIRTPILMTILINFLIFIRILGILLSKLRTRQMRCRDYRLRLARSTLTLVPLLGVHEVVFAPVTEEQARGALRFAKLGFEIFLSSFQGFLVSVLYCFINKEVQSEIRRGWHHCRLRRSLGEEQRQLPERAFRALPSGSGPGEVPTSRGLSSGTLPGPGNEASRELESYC
# T3: human GIP receptor (human, UniProt P48546 22-466)
# T3 sequence (looked up): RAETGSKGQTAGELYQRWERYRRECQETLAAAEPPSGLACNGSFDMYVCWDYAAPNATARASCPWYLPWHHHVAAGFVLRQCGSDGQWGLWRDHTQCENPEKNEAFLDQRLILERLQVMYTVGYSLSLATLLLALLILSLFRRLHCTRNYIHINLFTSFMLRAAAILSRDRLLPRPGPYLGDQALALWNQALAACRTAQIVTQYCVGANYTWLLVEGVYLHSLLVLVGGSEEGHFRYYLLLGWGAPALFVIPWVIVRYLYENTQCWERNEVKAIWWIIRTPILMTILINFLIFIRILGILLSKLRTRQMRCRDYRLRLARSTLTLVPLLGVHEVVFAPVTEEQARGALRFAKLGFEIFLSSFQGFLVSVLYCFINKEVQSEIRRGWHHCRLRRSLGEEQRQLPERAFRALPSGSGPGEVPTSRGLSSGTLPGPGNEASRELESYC
# B1: SEQ ID NO: 33 (peptide)
# peptide: Y[Aib]EGTFISDLSI[Aib]K([AEEA-AEEA-γGlu-C18 diacid])DRIHQEEFIEWL[tBuAla]AQGPSSGAPPPS-NH2
# modifications: N-terminus assumed
# SMILES: CC[C@H](C)[C@H](NC(=O)[C@H](Cc1ccccc1)NC(=O)[C@H](CCC(=O)O)NC(=O)[C@H](CCC(=O)O)NC(=O)[C@H](CCC(N)=O)NC(=O)[C@H](Cc1c[nH]cn1)NC(=O)[C@@H](NC(=O)[C@H](CCCNC(=N)N)NC(=O)[C@H](CC(=O)O)NC(=O)[C@H](CCCCNC(=O)COCCOCCNC(=O)COCCOCCNC(=O)CC[C@H](NC(=O)CCCCCCCCCCCCCCCCC(=O)O)C(=O)O)NC(=O)C(C)(C)NC(=O)[C@@H](NC(=O)[C@H](CO)NC(=O)[C@H](CC(C)C)NC(=O)[C@H](CC(=O)O)NC(=O)[C@H](CO)NC(=O)[C@@H](NC(=O)[C@H](Cc1ccccc1)NC(=O)[C@@H](NC(=O)CNC(=O)[C@H](CCC(=O)O)NC(=O)C(C)(C)NC(=O)[C@@H](N)Cc1ccc(O)cc1)[C@@H](C)O)[C@@H](C)CC)[C@@H](C)CC)[C@@H](C)CC)C(=O)N[C@@H](CCC(=O)O)C(=O)N[C@@H](Cc1c[nH]c2ccccc12)C(=O)N[C@@H](CC(C)C)C(=O)N[C@@H](CC(C)(C)C)C(=O)N[C@@H](C)C(=O)N[C@@H](CCC(N)=O)C(=O)NCC(=O)N1CCC[C@H]1C(=O)N[C@@H](CO)C(=O)N[C@@H](CO)C(=O)NCC(=O)N[C@@H](C)C(=O)N1CCC[C@H]1C(=O)N1CCC[C@H]1C(=O)N1CCC[C@H]1C(=O)N[C@@H](CO)C(N)=O
# Key:
# [1] = Solubility assessment (UHPLC-UV of supernatant, target 10 mg/ml); assay type: physicochemical; settings: pH 7.4, Soluble amount
# Protocol: Prior to the solubility measurement of a peptide batch, its purity was determined through UHPLC/MS.
# Therefore, solutions from solid samples were prepared in a buffer system with a concentration of 10 mg/ml compound based on the previously determined % purity: • Solubility buffer system A) 100 mM phosphate buffer pH 7.4 • Solubility buffer system B) 8 mM phosphate buffer pH 7.4, 14 mg/ml propylene glycol, 5.5 mg/ml phenol • Solubility buffer system C) 100 mM phosphate buffer pH 7.4, 2.7 mg/ml m-cresol
# UHPLC-UV was performed after 1 h of gentle agitation and storage at 5° C. overnight (24 h) from the supernatant, which was obtained after 15 min of centrifugation at 2500 RCF (relative centrifugal acceleration).
# The different UV extinction coefficients of sample and reference peptide were calculated based on the different amino acid sequences and considered in the concentration calculation.
# The analytical method used was Analytical UHPLC Method A.
# Peptide samples were prepared in solubility buffer system A or C and solubility was assessed as described in Methods.
# [2] = molecular target: human GLP-1 receptor (hGLP-1R) (Homo sapiens, UniProt P43220); test: In vitro cellular cAMP assay for GLP-1 receptor efficacy (HEK-293 cell line over-expressing receptor); assay type: cell-based; settings: HEK-293, 0.1% BSA
# human GLP-1 receptor (hGLP-1R), sequence (P43220 24-463): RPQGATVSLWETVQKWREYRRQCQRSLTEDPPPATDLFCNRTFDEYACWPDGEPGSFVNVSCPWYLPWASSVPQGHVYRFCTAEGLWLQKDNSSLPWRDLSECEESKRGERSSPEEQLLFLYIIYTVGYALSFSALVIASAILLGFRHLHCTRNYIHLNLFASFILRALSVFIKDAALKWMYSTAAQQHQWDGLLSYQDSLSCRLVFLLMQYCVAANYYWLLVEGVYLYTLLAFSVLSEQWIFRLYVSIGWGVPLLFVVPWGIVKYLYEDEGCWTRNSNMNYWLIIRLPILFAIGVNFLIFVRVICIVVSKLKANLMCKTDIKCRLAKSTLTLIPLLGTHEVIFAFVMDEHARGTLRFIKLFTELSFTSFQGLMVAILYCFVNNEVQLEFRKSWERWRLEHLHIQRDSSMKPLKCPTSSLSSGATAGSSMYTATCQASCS
# human GIP receptor [3] = molecular target: T1, human GIP receptor; test: In vitro cellular cAMP assay for GIP receptor efficacy (human adipocytes); assay type: cell-based; settings: for Emax: read-out: hGIPR Emax
# Protocol: For this, one vial of human preadipocytes (˜10^6 cells; Lonza) was thawed in a T-75 cell culture dish. The cells were cultivated at 37° C., 5% CO2, 95% humidity in Preadipocyte Growth Medium with Supplement Mix from Promo Cell.
# After 3 days, the cells were washed with PBS and 1.5 ml Trypsin, incubated for 4 min, then resuspended in medium, centrifugated for 10 min @ 300 rcf RT, resuspended again and distributed to four T-75 cell culture dishes. Again, the cells were cultivated at 37° C., 5% CO2, 95% humidity.
# After 5 days, the cells were washed with PBS and 1.5 ml Trypsin, incubated for 4 min, then resuspended in medium, centrifugated for 10 min @ 300 rcf RT, resuspended again and sawn in T-75 dishes (2.5×10^6 cells per dish) in 15 ml Differentiation medium each.
# The differentiation medium had the following composition: DMEM (Gibco), Ham's F10 (Gibco), 15 mM HEPES (Gibco), 3% FCS (PAA), 33 μM biotin (Sigma-Aldrich), 17 μM Pantothenate (Sigma-Aldrich), 0.1 μM human insulin (Sigma-Aldrich), 1 μM dexamethason (Sigma-Aldrich), 0.1 μM PPARgamma agonist (#R2408, Sigma-Aldrich), 0.6×Anti-Anti (#15240, ThermoFisher), 200 μM IBMX (AppliChem), and 0.01 μM L-thyroxine (Sigma-Aldrich).
# After 6 days of differentiation, 5000 cells per well were dispensed on a 96-well plate (#CLS3694 from Corning®, Sigma-Aldrich). For measurement of cAMP generation, 25 μL of test compound was added to each well of the 96-well plate, followed by incubation for 30 min at room temperature.
# The cAMP generated following test compound stimulation was determined using a kit from Cisbio Corp. based on HTRF (Homogenous Time Resolved Fluorescence). The cAMP assay was performed according to manufacturer's instructions (Cisbio).
# The cAMP content of cells was determined using a kit from Cisbio Corp. based on HTRF (Homogenous Time Resolved Fluorescence).
# After addition of HTRF reagents diluted in lysis buffer (kit components), the plates were incubated for 1 h, followed by measurement of the fluorescence ratio at 665/620 nm.
# [4] = molecular target: T2, human GIP receptor (hGIPR); test: Binding assay, displacement of [125I]GIP from HEK-293 membranes over-expressing GIPR (SPA); settings: [125I]GIP displacement
# Protocol: (1) Preparation of Membranes from HEK-293 Cells Over-Expressing GIPR or GLP-1R
# HEK-293 cells recombinantly over-expressing GIPR or GLP-1R were grown to 50% confluency, washed with warm 1×PBS (Gibco) and detached in HEPES/EDTA-buffer (100 mM HEPES pH 7.5, 5 mM EDTA). Cells were harvested by centrifugation at 4° C. and 3000×g and the pellets were stored at −80° C. until further processing.
# After thawing on ice, pellets were resuspended in HEPES/EDTA-buffer and homogenized on ice for 1 min using Ultra-Turray T25. After subsequent sonification the cell debris was removed by centrifugation at 1000×g and 4° C. Supernatants were then ultra-centrifuged at 100000×g and 4° C. under vacuum for 30 min. Pellets were resuspended in HEPES/EDTA/NaCl-buffer (20 mM HEPES, 1 mM EDTA, 150 mM NaCl; add 1 Complete Mini Protease inhibitor cocktail to 10 ml buffer) and protein content was determined via BCA-Protein assay.
# (2) Measurement of Binding Activity of Test Compounds to Human GIPR or GLP-1R
# human GIP receptor [5] = molecular target: T3, human GIP receptor; test: cell-based or functional assay
Molecule,solubility at 24 h [1],EC50 [2],EC50 (human GIP receptor [3]; read-out: hGIPR EC50),Emax (human GIP receptor [3]),IC50 [4],solubility [1],"EC50 hGIPR 0% HSA (cAMP, HEK-293) (human GIP receptor [5])","EC50 hGIPR 0.1% BSA (cAMP, HEK-293) (human GIP receptor [5])"
"CC[C@H](C)[C@H](NC(=O)[C@H](Cc1ccccc1)NC(=O)[C@H](CCC(=O)O)NC(=O)C(C)(C)NC(=O)[C@H](CCC(N)=O)NC(=O)[C@H](CCCCNC(=O)COCCOCCNC(=O)COCCOCCNC(=O)CC[C@H](NC(=O)CCCCCCCCCCCCCCCCC(=O)O)C(=O)O)NC(=O)[C@H](CCC(N)=O)NC(=O)[C@H](CCC(=O)O)NC(=O)[C@H](CCC(=O)O)NC(=O)[C@H](CC(C)C)NC(=O)C(C)(C)NC(=O)[C@@H](NC(=O)[C@H](CO)NC(=O)[C@H](CC(C)C)NC(=O)[C@H](CC(=O)O)NC(=O)[C@H](CO)NC(=O)[C@@H](NC(=O)[C@H](Cc1ccccc1)NC(=O)[C@@H](NC(=O)CNC(=O)[C@H](CCC(=O)O)NC(=O)C(C)(C)NC(=O)[C@@H](N)Cc1ccc(O)cc1)[C@@H](C)O)[C@@H](C)CC)[C@@H](C)CC)C(=O)N[C@@H](CCC(=O)O)C(=O)N[C@@H](Cc1c[nH]c2ccccc12)C(=O)N[C@@H](CC(C)C)C(=O)N[C@@H](CC(C)C)C(=O)N[C@@H](C)C(=O)N[C@@H](CCC(N)=O)C(=O)NCC(=O)N1CCC[C@H]1C(=O)N[C@@H](CO)C(=O)N[C@@H](CO)C(=O)NCC(=O)N[C@@H](C)C(=O)N1CCC[C@H]1C(=O)N1CCC[C@H]1C(=O)N1CCC[C@H]1C(=O)N[C@@H](CO)C(N)=O [SEQ ID NO: 36, H2N-Y-Aib-E-G-T-F-I-S-D-L-S-I-Aib-L-E-E-Q-K[{AEEA}2-gGlu-C18OH]-Q-Aib-E-F-I-E-W-L-L-A-Q-G-P-S-S-G-A-P-P-P-S-NH2] (H-Y[Aib]EGTFISDLSI[Aib]LEEQK([AEEA-AEEA-γGlu-C18 diacid])Q[Aib]EFIEWLLAQGPSSGAPPPS-NH2)",> 10700 µg/mL,> 10000 pM,300 pM,104%,200 pM,,,
"CC[C@H](C)[C@H](NC(=O)[C@H](Cc1ccccc1)NC(=O)[C@H](CCC(=O)O)NC(=O)[C@H](CCC(=O)O)NC(=O)[C@H](CCC(N)=O)NC(=O)[C@H](Cc1c[nH]cn1)NC(=O)[C@@H](NC(=O)[C@H](CCCNC(=N)N)NC(=O)[C@H](CC(=O)O)NC(=O)[C@H](CCCCNC(=O)COCCOCCNC(=O)COCCOCCNC(=O)CC[C@H](NC(=O)CCCCCCCCCCCCCCCCC(=O)O)C(=O)O)NC(=O)C(C)(C)NC(=O)[C@@H](NC(=O)[C@H](CO)NC(=O)[C@H](CC(C)C)NC(=O)[C@H](CC(=O)O)NC(=O)[C@H](CO)NC(=O)[C@@H](NC(=O)C(C)(CC)NC(=O)[C@@H](NC(=O)CNC(=O)[C@H](CCC(=O)O)NC(=O)C(C)(C)NC(=O)[C@@H](N)Cc1ccc(O)cc1)[C@@H](C)O)[C@@H](C)CC)[C@@H](C)CC)[C@@H](C)CC)C(=O)N[C@@H](CCC(=O)O)C(=O)N[C@@H](Cc1c[nH]c2ccccc12)C(=O)N[C@@H](CC(C)C)C(=O)N[C@@H](CC(C)C)C(=O)N[C@@H](C)C(=O)N[C@@H](CCC(N)=O)C(=O)NCC(=O)N1CCC[C@H]1C(=O)N[C@@H](CO)C(=O)N[C@@H](CO)C(=O)NCC(=O)N[C@@H](C)C(=O)N1CCC[C@H]1C(=O)N1CCC[C@H]1C(=O)N1CCC[C@H]1C(=O)N[C@@H](CO)C(N)=O (stereo partly drawn) [SEQ ID NO: 24, H2N-Y-Aib-E-G-T-Iva-I-S-D-L-S-I-Aib-K[{AEEA}2-gGlu-C18OH]-DRIHQEEFIEWLLAQGPSSGAPPPS-NH2] (H-Y[Aib]EGT[ξIva]ISDLSI[Aib]K([AEEA-AEEA-γGlu-C18 diacid])DRIHQEEFIEWLLAQGPSSGAPPPS-NH2)",,,,100%,,7800 µg/mL,,
B1,,,,,,,0.22 pM,64.4 pM
